According to patent publication US20250282754A1, “BICYCLIC COMPOUNDS AND THEIR USE AS PEST CONTROL AGENTS” (Pl Industries Ltd., priority 2022, published 2025):

Legend:
[1] = test system: Nilaparvata lugens; assay: Nilaparvata lugens seedling dip test (paddy seedlings, third instar nymphs); type: in vivo; settings: dead and moribund third instar nymphs 72 h after release, compared to untreated controls, read-out: percent mortality
Protocol: The seedling dip method was used for testing, wherein the required quantity of the compound was weighed and dissolved in a tube containing a solvent solution. The tube was put on a vortex at 2000 rpm for proper mixing and then diluted with a 0.01% Triton-X solution to the desired test concentration. Paddy seedlings were dipped in the compound solution for 10 seconds, shade dried for 20 min and then the seedlings were placed in glass test tubes with the roots kept in water. 15 third instar nymphs of Nilaparvata lugens were released into each test tube and the tubes were kept in a plant growth chamber at a temperature of 25° C. and relative humidity of 75%. Observations on dead, moribund and alive nymphs were recorded 72 h after the release. Percent mortality was calculated by combining dead and moribund nymphs and comparing the result to the one of the untreated controls. The compounds

[2] = test system: Bemisia tabaci; assay: Bemisia tabaci leaf dip test (brinjal leaves, whitefly adults); type: in vivo; settings: foliar, dead and moribund whitefly adults 72 h after release, compared to untreated controls, read-out: percent mortality
Protocol: The leaf dip method was used for testing, wherein the required quantity of the compound was weighed and dissolved in a tube containing a solvent solution. The tube was put on a vortex at 2000 rpm for proper mixing and then diluted with a 0.01% Triton-X solution to the desired test concentration. Brinjal leaves were dipped in the compound solution for 10 seconds; shade dried for 20 min and then placed, with the abaxial side of the leaf up, on 4 ml of a solidified 1% agar-agar solution in respective container caps. Known numbers of freshly emerged whitefly adults were collected, using a modified aspirator, and released into a perforated container in which the cap containing the treated leaf was placed. The containers were kept in a plant growth chamber at a temperature of 25° C. and relative humidity of 70%. Observations on dead, moribund and alive adults were recorded 72 h after the release. Percent mortality was calculated by combining dead and moribund adults and comparing the result to the one of the untreated controls. The compounds 1 9 11 18 25 28 29 30 31

Row | SMILES | mortality at 300 ppm [1] | mortality at 300 ppm [2]
1 | CCS(C)(=O)=Nc1ccc2nn(-c3cncc(F)c3)cc2c1 (centres unmarked) [Compound 5] | ≥ 70% | –
2 | CS(C)(=O)=Nc1ccc2nn(-c3cncc(F)c3)cc2c1 [Compound 8] | ≥ 70% | –
3 | CS(=O)(Cc1ccccc1)=Nc1ccc2nn(-c3cncc(F)c3)cc2c1 (centres unmarked) [Compound 13] | ≥ 70% | –
4 | CS(=O)(=Nc1ccc2nn(-c3cncc(F)c3)cc2c1)c1ccccc1 (centres unmarked) [Compound 14] | ≥ 70% | –
5 | CS(=O)(Cc1ccccc1)=Nc1ccc2nn(-c3cncnc3)cc2c1 (centres unmarked) [Compound 16] | ≥ 70% | –
6 | CC(C)S(=O)(=Nc1ccc2nn(-c3cncnc3)cc2c1)c1ccc(F)cc1 (centres unmarked) [Compound 18] | – | ≥ 70%
7 | CC(C)(C)S(C)(=O)=Nc1ccc2nn(-c3cncnc3)cc2c1 (centres unmarked) [Compound 19] | ≥ 70% | –
8 | CS(=O)(=Nc1ccc2nn(-c3cccnc3)cc2c1)c1ccccc1 (centres unmarked) [Compound 21] | ≥ 70% | –
9 | Cc1ccc(S(C)(=O)=Nc2ccc3nn(-c4cccnc4)cc3c2)cc1 (centres unmarked) [Compound 23] | ≥ 70% | –
10 | CS(=O)(=Nc1ccc2nn(-c3cccnc3)cc2c1)c1ccc(Cl)cc1 (centres unmarked) [Compound 26] | ≥ 70% | –
11 | CCCCCS(C)(=O)=Nc1ccc2nn(-c3cccnc3)cc2c1 (centres unmarked) [Compound 27] | ≥ 70% | –
12 | CC(C)S(=O)(=Nc1ccc2nn(-c3cncnc3)cc2c1)C(C)C [Compound 31] | – | ≥ 70%
13 | CCS(=O)(=Nc1ccc2nn(-c3cncnc3)cc2c1)c1ccccc1 (centres unmarked) [Compound 34] | – | ≥ 70%
14 | CCCCCS(C)(=O)=Nc1ccc2nn(-c3cncc(F)c3)cc2c1 (centres unmarked) [Compound 42] | ≥ 70% | –
15 | CCS(=O)(CC)=Nc1ccc2nn(-c3ccnnc3)cc2c1 [Compound 43] | – | ≥ 70%
16 | CCS(=O)(=Nc1ccc2nn(-c3ccnnc3)cc2c1)C(C)C (centres unmarked) [Compound 48] | – | ≥ 70%
17 | O=S(CCC(F)(F)F)(=Nc1ccc2nn(-c3cncc(F)c3)cc2c1)c1ccccc1 (centres unmarked) [Compound 65] | – | ≥ 70%
18 | COc1ccc(S(=O)(CCC(F)(F)F)=Nc2ccc3nn(-c4cncc(F)c4)cc3c2)cc1 (centres unmarked) [Compound 66] | – | ≥ 70%
19 | O=S(CCC(F)(F)F)(=Nc1ccc2nn(-c3ccnnc3)cc2c1)c1ccccc1 (centres unmarked) [Compound 68] | – | ≥ 70%
20 | CC(C)S(C)(=O)=Nc1cccc2nn(-c3cccnc3)cc12 (centres unmarked) [Compound 74] | – | ≥ 70%
21 | CCCS(=O)(CCC)=Nc1cccc2nn(-c3cncc(F)c3)cc12 [Compound 77] | – | ≥ 70%

Row | SMILES | mortality at 300 ppm [1] | mortality at 300 ppm [2]
22 | CC(C)CS(=O)(CC(C)C)=Nc1ccc2nn(-c3cccnc3)cc2c1 [Compound 79] | – | ≥ 70%
23 | CC(C)S(=O)(CCC(F)(F)F)=Nc1ccc2nn(-c3cncnc3)cc2c1 (centres unmarked) [Compound 101, isopropyl((2-(pyrimidin-5-yl)-2H-indazol-5-yl)imino)(3,3,3-trifluoropropyl)-λ^6-sulfanone] | – | ≥ 70%
24 | CCS(=O)(=Nc1ccc(F)c2nn(-c3cccnc3)cc12)C(C)C (centres unmarked) [Compound 108] | – | ≥ 70%
25 | CCS(C)(=O)=Nc1ccc(F)c2nn(-c3cccnc3)cc12 (centres unmarked) [Compound 109] | – | ≥ 70%
26 | COc1nn(-c2ccc3nn(-c4ccc(C)nc4C)cc3c2)c(=O)n1C [Compound 116, 2-(2-(2,6-dimethylpyridin-3-yl)-2H-indazol-5-yl)-5-methoxy-4-methyl-2,4-dihydro-3H-1,2,4-triazol-3-one] | – | ≥ 70%
27 | COc1nn(-c2ccc3nn(-c4cccnc4)cc3c2)c(=O)n1Cc1ccccc1F [Compound 122, 4-(2-fluorobenzyl)-5-methoxy-2-(2-(pyridin-3-yl)-2H-indazol-5-yl)-2,4-dihydro-3H-1,2,4-triazol-3-one] | – | ≥ 70%
28 | CCN(C)S(=O)(=Nc1ccc2nn(-c3cncnc3)cc2c1)C1CC1 (centres unmarked) [Compound 135, N-ethyl-N-methyl-N′-(2-(pyrimidin-5-yl)-2H-indazol-5-yl)cyclopropanesulfonimidamide] | – | ≥ 70%
29 | CCCS(=O)(CCC)=Nc1cnc2nn(-c3cncnc3)cc2c1 [Compound 184] | – | ≥ 70%
30 | CC(C)S(C)(=O)=Nc1ccc2nn(-c3cncnc3)cc2n1 (centres unmarked) [Compound 213] | – | ≥ 70%
31 | CCCCS(=O)(CC)=Nc1ccc2nn(-c3cccnc3)cc2n1 (centres unmarked) [Compound 214] | – | ≥ 70%
32 | CCS(=O)(CC)=Nc1ccc2nn(-c3cncnc3)cc2n1 [Compound 219] | – | ≥ 70%
33 | CCCCS(=O)(CC)=Nc1ccc2nn(-c3cncnc3)cc2n1 (centres unmarked) [Compound 220] | – | ≥ 70%
34 | CC(C)CS(=O)(CC(C)C)=Nc1ccc2nn(-c3cncnc3)cc2n1 [Compound 221] | – | ≥ 70%
35 | CS(=O)(=Nc1ccc2nn(-c3cncnc3)cc2n1)C1CCCCC1 (centres unmarked) [Compound 223] | – | ≥ 70%
36 | CS(C)(=O)=NC(=O)c1ccc2nn(-c3cncnc3)cc2c1 [Compound 228, N-(dimethyl(oxo)-λ^6-sulfaneylidene)-2-(pyrimidin-5-yl)-2H-indazole-5-carboxamide] | – | ≥ 70%
37 | CCS(=O)(CC)=NC(=O)c1ccc2nn(-c3cncnc3)cc2c1 [Compound 231, N-(diethyl(oxo)-λ^6-sulfaneylidene)-2-(pyrimidin-5-yl)-2H-indazole-5-carboxamide] | – | ≥ 70%
38 | CCS(=O)(=Nc1ccc2nn(-c3cncnc3)cc2n1)C(C)C (centres unmarked) [Compound 241] | – | ≥ 70%
39 | CCCS(=O)(CCC)=Nc1cc2cn(-c3cncnc3)nc2cn1 [Compound 278] | – | ≥ 70%
40 | CC(C)S(=O)(CC1CCC1)=Nc1ccc2nn(-c3cccnc3)cc2n1 (centres unmarked) [Compound 289] | – | ≥ 70%
41 | CC(C)(C)S(C)(=O)=Nc1ccc2nn(-c3cncc(F)c3)cc2c1 (centres unmarked) [Compound 293] | – | ≥ 70%
42 | CC(C)CCS(=O)(=Nc1ccc2nn(-c3cncnc3)cc2c1)C(C)C (centres unmarked) [Compound 294] | – | ≥ 70%

Row | SMILES | mortality at 300 ppm [1] | mortality at 300 ppm [2]
43 | CCS(=O)(CC)=Nc1cc(C(F)(F)F)c2nn(-c3cccnc3)cc2c1 [Compound 296] | – | ≥ 70%
44 | CCS(C)(=O)=Nc1ccc2nn(-c3cncc(F)c3)cc2n1 (centres unmarked) [Compound 307] | – | ≥ 70%
45 | CCS(=O)(CC)=Nc1ccc2nn(-c3cncc(F)c3)cc2n1 [Compound 308] | – | ≥ 70%
46 | CCCS(C)(=O)=Nc1ccc2nn(-c3cncc(F)c3)cc2n1 (centres unmarked) [Compound 309] | – | ≥ 70%
47 | CCCS(=O)(CCC)=Nc1ccc2nn(-c3cncc(F)c3)cc2n1 [Compound 310] | – | ≥ 70%
48 | CC(C)S(C)(=O)=Nc1ccc2nn(-c3cncc(F)c3)cc2n1 (centres unmarked) [Compound 311] | – | ≥ 70%
49 | CC(C)(C)S(C)(=O)=Nc1ccc2nn(-c3cncc(F)c3)cc2n1 (centres unmarked) [Compound 313] | – | ≥ 70%
50 | COc1nn(-c2ccc3nn(-c4cccnc4)cc3c2)c(=O)n1Cc1ccc(Cl)c(Cl)c1 [Compound 368, 4-(3,4-dichlorobenzyl)-5-methoxy-2-(2-(pyridin-3-yl)-2H-indazol-5-yl)-2,4-dihydro-3H-1,2,4-triazol-3-one] | – | ≥ 70%
51 | COc1nn(-c2ccc3nn(-c4cccnc4)cc3c2)c(=O)n1Cc1ccc(Cl)cc1Cl [Compound 369, 4-(2,4-dichlorobenzyl)-5-methoxy-2-(2-(pyridin-3-yl)-2H-indazol-5-yl)-2,4-dihydro-3H-1,2,4-triazol-3-one] | – | ≥ 70%
52 | CN=S(=O)(c1ccc2nn(-c3cccnc3)cc2c1)C(C)C (centres unmarked) [Compound 408] | – | ≥ 70%
53 | CC(C)S(=N)(=O)c1ccc2nn(-c3cncnc3)cc2c1 (centres unmarked) [Compound 410, imino(isopropyl)(2-(pyrimidin-5-yl)-2H-indazol-5-yl)-λ^6-sulfanone] | – | ≥ 70%
54 | CC(=O)N=S(=O)(c1ccc2nn(-c3cncnc3)cc2c1)C(C)C (centres unmarked) [Compound 418] | – | ≥ 70%
55 | CC(C)S(=O)(=NC(=O)C(F)F)c1ccc2nn(-c3cncnc3)cc2c1 (centres unmarked) [Compound 421] | – | ≥ 70%
56 | CCS(=O)(=Nc1cncc(C(F)(F)F)n1)c1ccc2nn(-c3cncc(F)c3)cc2c1 (centres unmarked) [Compound 463] | – | ≥ 70%
57 | N=S(=O)(CC1CCC1)c1ccc2nn(-c3cncnc3)cc2c1 (centres unmarked) [Compound 465, (cyclobutylmethyl)(imino)(2-(pyrimidin-5-yl)-2H-indazol-5-yl)-λ^6-sulfanone] | – | ≥ 70%
58 | CCN=S(=O)(CC1CCC1)c1ccc2nn(-c3cncnc3)cc2c1 (centres unmarked) [Compound 466] | – | ≥ 70%
59 | CC(=O)N=S(=O)(CC1CCC1)c1ccc2nn(-c3cncnc3)cc2c1 (centres unmarked) [Compound 467] | – | ≥ 70%
60 | N=S(=O)(c1ccc2nn(-c3cccnc3)cc2c1)C1CCC1 (centres unmarked) [Compound 554, cyclobutyl(imino)(2-(pyridin-3-yl)-2H-indazol-5-yl)-λ^6-sulfanone] | – | ≥ 70%
61 | N=S(=O)(CCC1CCCCC1)c1ccc2nn(-c3cccnc3)cc2c1 (centres unmarked) [Compound 561, (2-cyclohexylethyl)(imino)(2-(pyridin-3-yl)-2H-indazol-5-yl)-λ^6-sulfanone] | – | ≥ 70%
62 | N=S(=O)(CCC(F)(F)F)c1ccc2nn(-c3cccnc3)cc2c1 (centres unmarked) [Compound 580, imino(2-(pyridin-3-yl)-2H-indazol-5-yl)(3,3,3-trifluoropropyl)-λ^6-sulfanone] | – | ≥ 70%
